The source of these data is patent publication US20260364184A1, “COMPOUND BASED ON OXOISOINDOLINYL-SUBSTITUTED TETRAHYDROPYRIMIDINE-DIONE AND USE THEREOF” (GLUETACS THERAPEUTICS (SHANGHAI) CO., LTD., priority 2023, published 2026).

The term inhibition denotes how much of the control response was suppressed.

Holding throughout (type): cell-based
The target in assay [1] is T1, AR (Homo sapiens, UniProt P10275).
T1 construct: expression of target proteins in cells; endogenous in cells
T1 sequence (P10275 1-920): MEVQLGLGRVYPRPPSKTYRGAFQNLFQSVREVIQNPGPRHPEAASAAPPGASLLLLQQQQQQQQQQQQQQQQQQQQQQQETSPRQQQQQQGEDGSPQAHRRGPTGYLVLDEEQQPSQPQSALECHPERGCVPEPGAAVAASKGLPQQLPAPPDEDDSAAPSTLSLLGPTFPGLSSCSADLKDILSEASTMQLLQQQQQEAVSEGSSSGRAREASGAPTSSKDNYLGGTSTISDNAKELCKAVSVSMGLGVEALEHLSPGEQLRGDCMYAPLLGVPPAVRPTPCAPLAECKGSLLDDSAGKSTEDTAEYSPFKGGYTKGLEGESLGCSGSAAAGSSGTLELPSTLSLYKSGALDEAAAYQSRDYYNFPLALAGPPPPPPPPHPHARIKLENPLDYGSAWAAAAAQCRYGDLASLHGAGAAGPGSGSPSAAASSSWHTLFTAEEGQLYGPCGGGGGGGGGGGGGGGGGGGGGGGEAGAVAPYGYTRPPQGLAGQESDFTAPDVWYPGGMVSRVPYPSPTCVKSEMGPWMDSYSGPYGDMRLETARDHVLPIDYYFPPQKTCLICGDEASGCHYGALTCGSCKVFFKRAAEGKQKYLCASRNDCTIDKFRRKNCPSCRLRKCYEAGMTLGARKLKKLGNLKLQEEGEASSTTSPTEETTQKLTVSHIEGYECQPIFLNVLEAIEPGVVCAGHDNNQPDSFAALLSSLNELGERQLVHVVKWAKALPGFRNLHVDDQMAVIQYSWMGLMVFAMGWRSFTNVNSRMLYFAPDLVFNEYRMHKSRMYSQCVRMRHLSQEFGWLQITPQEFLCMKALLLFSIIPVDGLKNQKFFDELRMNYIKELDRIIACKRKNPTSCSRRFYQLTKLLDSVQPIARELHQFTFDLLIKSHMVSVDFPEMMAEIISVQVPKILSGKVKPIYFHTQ
Description: Western blot degradation of AR. As to conditions: LnCap Cell; 24 hours. The method, then:
Conventional Western blot assay was performed to evaluate the effects of the compounds of the present disclosure on the expression of target proteins in cells.
(1) Cell Seeding and Protein Harvesting: The selected cells were processed according to the cell seeding procedure and protein harvesting procedure in Table II-2.
(2) To the collected supernatant, 5×SDS sample loading buffer was added, followed by denaturation at 95 °C for 5 minutes. The denatured samples were then separated by SDS-PAGE electrophoresis on a polyacrylamide gel. Proteins were transferred to a nitrocellulose membrane (0.45 μm NC membrane), blocked with blocking buffer at room temperature for 1 hour, and subjected to antibody incubation and development procedures according to the antibody manufacturer's instructions (Cell Signaling Technology).
Half-Maximal Degradation Concentration value (the drug concentration required for degrading proteins by 50%, abbreviated as DC50) reads method: comparing the grayscale values of Western blot bands from drug-treated samples with those from blank DMSO-treated controls, and identifying the drug concentration range at which the grayscale value is half that of the DMSO-treated control bands.
DC50 values can be calculated using ImageJ software to measure grayscale values of Western blot bands from drug-treated samples. The concentration-response curve is fitted to estimate the drug concentration corresponding to half the grayscale value.
Target protein remaining (%) refers to the percentage of target protein remaining in cells after treatment with protein degrader compounds.
Calculation method for target protein remaining (%): Use ImageJ software to measure grayscale values of Western blot bands from drug (protein degrader)-treated samples. The grayscale value of drug-treated bands is divided by that of internal control protein bands, and the resulting quotient is normalized to obtain the relative percentage of remaining target protein after protein degrader treatment.
Target protein degradation rate (%)=1−target protein remaining (%).
In general terms: A western blot detects proteins with antibodies after separation by electrophoresis.

Assay [2] has as its system Human acute lymphocytic leukemia T lymphocytes cell line (CCRF-CEM). Put plainly: Inhibition of CCRF-CEM cell proliferation (CellTiter luminescent viability). The following applies: Table IF2, AR inhibitor-based; for inhibition at 0.01 µM / inhibition at 0.5 µM: Homo sapiens, 96 h; for inhibition at 0.01 µM: read-out: Inhibition Rate at 10 nM (%); for inhibition at 0.5 µM: 500 nM, read-out: Inhibition Rate at 500 nM (%).

The test system of assay [3] is Human T lymphocytic leukemia cell line (Jurkat). Put plainly: Inhibition of Jurkat cell proliferation (CellTiter luminescent viability). The following applies: Homo sapiens, Table IF3, AR inhibitor-based, 96 hours; for inhibition at 0.01 µM: 10 nM, read-out: Inhibition Rate at 10 nM (%); for inhibition at 0.5 µM: 500 nM, read-out: Inhibition Rate at 500 nM (%). The method, then: The tumor cells used herein were cultured in a cell culture medium listed in table 3 at 37 °C in an incubator with 5% CO2. Prior to experimentation, all cell lines used were correctly identified by STR profiling, and tested negative for mycoplasma contamination using a mycoplasma detection kit through routine screenings.
The IC50 values of the compounds of the present disclosure (including the compounds in Table 1, Table 2, and Examples 1-468) were determined using the CellTiter-Meiluncell Luminescent Cell Viability Assay Kit from Dalian Meilun Biotech Co., Ltd. The detailed procedure is as follows: Tumor cells were seeded in 96-well cell culture plates at the densities specified in Table 4. On the following day, the test compounds of the present disclosure were subjected to serial dilution. The dilution can be performed according to one of the following two methods: • (1) The first dilution method: The test compounds of the present disclosure (including the compounds in Table 1, Table 2, and Examples 1-468) were subjected to 5-fold serial dilutions starting from a highest concentration of 2000 μM, resulting in a total of 9 concentrations from high to low (2000, 400, 80, 16, 3.2, 0.64, 0.128, 0.0256, 0.00512 μM). Subsequently, 0.5 μL of the test compound dilution was transferred into the 96-well plate containing the cells, with each well containing 100 μL of cell culture medium. […] Into the 96-well plate, the diluted test compounds and corresponding detection reagents were added, resulting in final test compound concentrations of 500 nM and 10 nM, respectively. The experimental procedure is described below using the diluted 2 μM test compound as an example.
0.5 μL of the aforementioned diluted compound of the present disclosure (including the compounds in Table 1, Table 2, and Examples 1-468) was added to the seeded cells in 100 μL of medium, yielding a final test compound concentration of 10 nM. After the cells were treated with the compounds of the present disclosure for a specified period, the cell viability assay reagent was added to the culture medium according to the kit's instructions to determine cell viability. […] All controls were treated using the same procedure as the compounds of the present disclosure. The growth inhibition curves for the compounds of the present disclosure were plotted using Prism GraphPad software, and the IC50 values were calculated therefrom.

Assay [4] concerns Human diffuse large B-cell lymphoma cell line (TMD8). Description: Inhibition of TMD8 cell proliferation (CellTiter luminescent viability). The following applies: Table IF1, AR inhibitor-based; for inhibition at 0.01 µM / inhibition at 0.5 µM: Homo sapiens, TMD8, 96 h; for inhibition at 0.01 µM: read-out: Inhibition Rate at 10 nM (%); for inhibition at 0.5 µM: TMD8, 500 nM, read-out: Inhibition Rate at 500 nM (%).

For `N#Cc1ccc(O[C@H]2CC[C@H](NC(=O)c3ccc(N4CCC(CN5CC6CCC(C5)N6c5ccc6c(c5)C(=O)N(N5CCC(=O)NC5=O)C6=O)CC4)nn3)CC2)cc1Cl` [GT-05229, N-((1r,4r)-4-(3-chloro-4-cyanophenoxy)cyclohexyl)-6-(4-((8-(2-(2,4-dioxotetrahydropyrimidin-1(2H)-yl)-1,3-dioxoisoindolin-5-yl)-3,8-diazabicyclo[3.2.1]octan-3-yl)methyl)piperidin-1-yl)pyridazine-3-carboxamide], in assay [1], the “Degradation of substrate protein AR (substrate protein remaining %)” value (“Degradation … (substrate protein remaining %)” for short) is given as “A (0%≤substrate protein remaining %≤80%)”. Besides, the inhibition at 0.01 µM is 30 to 40% in assay [2] (10 nM); 20 to 30% in assay [3]; 40 to 60% in assay [4] (TMD8, 10 nM). The inhibition at 0.5 µM was in the range of 60 to 80% in assay [2], 40 to 60% in assay [3] and 60 to 80% in assay [4].

For the compound `CC1(C)[C@H](NC(=O)c2ccc(N3CCC(CN4CCN(c5ccc6c(c5)C(=O)N(N5CCC(=O)NC5=O)C6=O)CC4)CC3)nc2)C(C)(C)[C@H]1Oc1ccc(C#N)c(Cl)c1` [GT-05301, N-((1r,3r)-3-(3-chloro-4-cyanophenoxy)-2,2,4,4-tetramethylcyclobutyl)-6-(4-((4-(2-(2,4-dioxotetrahydropyrimidin-1(2H)-yl)-1,3-dioxoisoindolin-5-yl)piperazin-1-yl)methyl)piperidin-1-yl)nicotinamide], the “Degradation … (substrate protein remaining %)” value in assay [1] is “A (0%≤substrate protein remaining %≤80%)”. Also, the figures for the inhibition at 0.5 µM in assay [2], in assay [3] and in assay [4] were 30 to 40%, 20 to 30% and 40 to 60%, respectively. Moreover, the “Inhibition Rate at 10 nM (%)” value is reported as “IFb5 (15% ≤ IFb5 < 20%)” in assay [2] (10 nM, 96 hours, 0.01 µM) and “IFa6 (25% ≤ IFa6 < 30%)” in assay [4] (TMD8, 10 nM, 96 hours, 0.01 µM). In addition, the inhibition at 0.01 µM in assay [3] lay in the range of 10 to 15%.

Regarding `CC1(C)[C@H](NC(=O)c2ccc(N3CCC(CN4CC5CCC(C4)N5c4ccc5c(c4)C(=O)N(N4CCC(=O)NC4=O)C5=O)CC3)nc2)C(C)(C)[C@H]1Oc1ccc(C#N)c(Cl)c1` [GT-05305, N-((1r,3r)-3-(3-chloro-4-cyanophenoxy)-2,2,4,4-tetramethylcyclobutyl)-6-(4-((8-(2-(2,4-dioxotetrahydropyrimidin-1(2H)-yl)-1,3-dioxoisoindolin-5-yl)-3,8-diazabicyclo[3.2.1]octan-3-yl)methyl)piperidin-1-yl)nicotinamide], in assay [1], the “Degradation … (substrate protein remaining %)” value is “A (0%≤substrate protein remaining %≤80%)”. Besides, the inhibition at 0.01 µM in assay [2] (10 nM) fell in the range of 20 to 30%; in assay [3], 10 to 15%; in assay [4] (TMD8, 10 nM), 25 to 30%. For the same compound, the inhibition at 0.5 µM in assay [2], in assay [3] and in assay [4] was 40 to 60% throughout.

`N#Cc1ccc(O[C@H]2CC[C@H](NC(=O)c3ccc(N4CCC(CN5CCN(C6CCN(c7ccc8c(c7)C(=O)N(N7CCC(=O)NC7=O)C8=O)CC6)CC5)CC4)nn3)CC2)cc1Cl` [GT-05829, N-((1r,4r)-4-(3-chloro-4-cyanophenoxy)cyclohexyl)-6-(4-((4-(1-(2-(2,4-dioxotetrahydropyrimidin-1(2H)-yl)-1,3-dioxoisoindolin-5-yl)piperidin-4-yl)piperazin-1-yl)methyl)piperidin-1-yl)pyridazine-3-carboxamide]: in assay [1], the “Degradation … (substrate protein remaining %)” value was “A (0%≤substrate protein remaining %≤80%)”. For the same compound, the inhibition at 0.01 µM is 15 to 20% in assay [2] (10 nM) and 10 to 15% in assay [4] (TMD8, 10 nM). Besides, the results for the inhibition at 0.5 µM in assay [2] and in assay [4] were 20 to 30% and 35 to 40%, respectively.

As for `Cn1cc(-c2cc(S(C)(=O)=O)ccc2OCc2ccc3c(c2)CN(N2CCC(=O)NC2=O)C3=O)c2cc[nH]c2c1=O` [GT-06413, 1-(5-((2-(6-methyl-7-oxo-6,7-dihydro-1H-pyrrolo[2,3-c]pyridin-4-yl)-4-(methylsulfonyl)phenoxy)methyl)-1-oxoisoindolin-2-yl)dihydropyrimidine-2,4 (1H,3H)-dione], the “Degradation … (substrate protein remaining %)” value in assay [1] is “A (0%≤substrate protein remaining %≤80%)”.

Turning to `Cc1ccc(-c2c(C)noc2C)cc1N(CC1CCN(CC2CCN(c3ccc4c(c3)C(=O)N(N3CCC(=O)NC3=O)C4=O)CC2)CC1)c1ccc(C2(C#N)CC2)cc1` [GT-06418, 1-(4-((5-(3,5-dimethylisoxazol-4-yl)-2-methylphenyl)((1-((1-(2-(2,4-dioxotetrahydropyrimidin-1(2H)-yl)-1,3-dioxoisoindolin-5-yl)piperidin-4-yl)methyl)piperidin-4-yl)methyl)amino)phenyl)cyclopropane-1-carbonitrile], in assay [1], the “Degradation … (substrate protein remaining %)” value is “A (0%≤substrate protein remaining %≤80%)”.
